Measured values as given in patent US20130095059A1, “INHALED NO DONOR KMUPS DERIVATIVE PREVENTING ALLERGIC PULMONARY VASCULAR AND BRONCHIAL INFLAMMATION VIA SUPPRESSED CYTOKINES, INOS AND INFLAMMATORY CELL COUNTS IN ASTHMA MODEL” (priority 2007, published 2013).

Legend:
PASMCs = PASMCs [Ca2+]i measurement (Fura-2/AM); format: cell-based, Wistar rats
Experimental: Wistar rats were anesthetized with an overdose of sodium pentobarbital (60 mg/kg) and the skin was sterilized with 75% alcohol. The chest was opened and the heart and lung were removed. The organs were rinsed several times in PBS. The pulmonary artery were segregated in a sterile manner. The outer sphere was peeled and the microtubule was snipped visually, and endothecia were shaved lightly 2-3 times in order to remove endothelial cells. The tunica media was prepared into scraps (1 mm^3) in DMEM (Dulbecco's modified Eagle's medium). PASMCs were cultured in DMEM containing 10% fetal bovine serum (5% CO2 at 37° C.). The culture medium was changed every 3 days and cells were subcultured until confluence. Primary cultures of 2-4 passages were used in the experiments. Cells were examined by immunofluorescence staining of α-actin to confirm the purity of PASMCs.
The measurement of [Ca^2+]i in PASMCs was performed using a spectrofluorophotometer as previously reported. PASMCs, cultured for 2-4 passages and re-suspended by trypsin, were loaded with Fura-2/AM for the measurement of [Ca^2+]i changes in cells within the cuvette by spectrofluorophotometer (Shimadzu, RF-5301PC, Shimadzu, Japan). KMUP-1 was applied 5 min before application of 5-HT (10 μM).

inflammatory cells = assay: Ovalbumine model, histology of peri-vascular and peri-bronchiolar regions; format: in vivo, BALB/c mice; conditions: ovalbumine-exposed mice; nebulization 5 mM 30 min
Experimental: (§1) In this long-term experiment, 6-8 week old BALB/c female mice were sensitized on days 1 and 8 by intra-peritoneal injection (i.p.) of ovalbumine (10 μg) (Sigma-Aldrich, Schnelldorf, Germany) adsorbed to 2 mg aluminum hydroxide (AlumInject; Perbio, Erembodegem, Belgium). Mice were divided into three groups. In Group 1, a control group was only exposed to saline nebulization by aerosol. The other 2 groups were subjected to ovalbumine (1%) nebulization. Before each challenge with ovalbumine, mice were either exposed to saline nebulization (Group 2) or KMUP-1 nebulization (5 mM) for 30 min by aerosol (Group 3).
Sections of fixed embedded tissues were cut at […], placed on glass slides, deparaffinized and stained sequentially with hematoxylin 2 and eosin-Y (MUTO PURE CHEMICALS CO., LTD., Tokyo, Japan) (Tournoy K G, et al., 2000). To confirm the relationship between vascular inflammation/remodeling and expression of proteins, lung tissue sections from ovalbumine experiments were prepared and stained with hematoxylin-eosin as previously described (Hongo M, et al., 2000). Microphotography analysis of blood vessels and bronchioles, focusing on peri-bronchial and peri-vascular region in the lung sections, was performed using a color digital camera mounted on a computer-interfaced light microscope (Eclipse TE2000-S microscope, Nikon, Tokyo, Japan).

IL-5 = assay: Ovalbumine model, plasma IL-5 (ELISA); format: in vivo, mice; conditions: mice sensitized and challenged by ovalbumine
Experimental: as §1

MMP-9 = assay: Short term nebulization, MMP-9 expression in lung tissues; format: in vivo, BALB/c mice; conditions: nebulization 1.0˜2.5 mM, 30 mins, without ovalbumine sensitization
Experimental: […] […] […] Three different experiments were performed on cohorts of 7˜14 mice per experimental condition.
The lung tissues were homogenized, washed with PBS and incubated in lysis buffer in addition to a protease inhibitor cocktail (Sigma, St. Louis, Mo.) to obtain extracts of lung proteins. A Western blot analysis was performed as described previously (Wu B N, et al., 2006). The samples were loaded to 10% SDS-PAGE gels and were separated at 120 V for 90 min. The blots were incubated with anti-eNOS antibody diluted at a ratio of 1:500, anti-sGCα1 antibody diluted at a ratio of 1:2000, anti-PKG antibody diluted at a ratio of 1:500, anti-VCAM-1 antibody diluted at a ratio of 1:500, anti-ICAM-1 antibody diluted at a ratio of 1:500, and anti-MMP-9 antibody diluted at a ratio of 1:600 overnight at 4° C. The membranes were stripped and re-blotted with anti-actin antibody (Sigma, St. Louis, Mo.) to verify the equal loading of protein in each lane.

5-HTT = 5-HTT expression in pulmonary artery and lung of MCT-treated rats; format: in vivo; conditions: 21 days after MCT
Experimental: The experiments were performed in adult male Wistar rats (300 to 350 g) in accordance with institutional guidelines after approval by the ethical review committee. PAH development and pulmonary expression of 5-HTT were examined in rats after 60 mg/kg single injection (i.p.) of monocrotaline (MCT). To assess the potential preventive effect of KMUP-1 on MCT-induced PAH and associated proliferation, we assigned rats at random to 2 groups of 8 animals which received KMUP-1 at 5 mg/kg/day p.o or 1 mg/kg/day i.p. All treatments were given once a day for 3 weeks after a single MCT injection (60 mg/kg i.p.) (Abe et al., 2004). On day 21, rats were anesthetized and pulmonary artery blood pressure (MPAP) was recorded as previously described. Lung tissues were dissected for Western blotting and immunohistochemistry.
For 5-HTT immunostaining, the lung slides were dewaxed in 100% xylene, and the sections were then rehydrated by successive immersion first in decreasing ethanol concentrations (100%, 90%, 80%, 50% and 30%) and then in water. Endogenous peroxidase activity was blocked using H2O2 in methanol (0.3% vol/vol) for 10 min. After three PBS washes, sections were pre-incubated in PBS supplemented with 3% (wt/vol) BSA for 30 min, then incubated overnight at 4° C. with goat polyclonal anti-5-HTT antibody (Abcam Biotechnology, Cambridge, UK) diluted to 1:1000 in 1×PBS, 0.02% BSA. […]

## Cn1c(=O)c2c(ncn2CCN2CCN(c3ccccc3Cl)CC2)n(C)c1=O [KMUP-1, 7-[2-[4-(2-chlorophenyl)piperazinyl]ethyl]-1,3-dimethylxanthine]
PASMCs; 10 μM
  inhibition of sustained [Ca^2+]i response to 5-HT: 65%
PASMCs; 0.1-100 μM, 5-HT 10 μM
  5-HT-induced elevation of [Ca^2+]i: concentration-dependently inhibited
Inflammatory cells
  inflammatory cells in the peri-vascular and peri-bronchiolar regions: marked reductions
IL-5
  IL-5 levels in the plasma: inhibited
MMP-9
  MMP-9 expression in mice lung tissues: decreased
5-HTT
  5-HTT protein expression in lung tissue (Western blotting): significantly reduced
5-HTT; 5 mg/kg p.o. and 1 mg/kg i.p.
  5-HTT expression in pulmonary artery (immunochemistry): significantly decreased
